From patent US12215092B2, “Pleiotropic pathway modifier compounds and method of treating diseases” (PPM BIOPHARMA LLC, priority 2023, dated 2025)
Entries after “also recorded” stand apart in the source; their conditions may differ.

Columns and labels:
HDAC2 = HDAC2 (Homo sapiens, UniProt Q92769); assay: Automatic Western blot (Simple Western), targeted protein degradation: HDAC2; type: cell-based; settings: 0.001-10 μM, 24 hours
Method: (§1) Targeted protein degradation in test samples were determined using the automated capillary-based nanoproteomic immunoassay Simple Western System (Protein Simple). Cultured cells were washed with cold PBS once and lysed in cold RIPA buffer supplemented with protease and phosphatase inhibitors. The solutions were then incubated at 4° C. for 30 minutes with gentle agitation to fully lyse cells. Each test sample was diluted at 0.4 mg/ml and mixed with 5× reducing buffer with fluorescent molecular weight (MW) standards. Afterwards the samples were heated to 95° C. for 5 minutes, and 5 μL samples were loaded into each capillary tube. Proteins were passed and separated through stacking and separation matrices for 30 minutes at 250 V. Proteins were then immobilized to capillary walls using optimal photoactivated capture chemistry. Following proteins immobilization, capillaries were flushed with a wash buffer and incubated with a blocking reagent for 6 min. Each target protein was probed with a specific primary antibody (diluted in blocking buffer and incubated for 38 min) and a horseradish peroxidase (HRP)-conjugated secondary antibody (ready to use solutions, incubated for 23 min). A mixture of luminol and peroxide was added following manufacturer's protocol. The resulting chemiluminescent signal was captured by a CCD camera, and signal intensities were analyzed using Compass Software (Protein Simple).
(§2) 1H929 or Jurkat cells were treated with DMSO, the positive control pomalidomide (an FDA-approved immunomodulatory agent) or the selected test compound (compound 4) at indicated concentrations (0.001-10 μM) for 24 hours. […] Ikaros and other proteins (Table 1),

target protein = assay: Targeted protein degradation in H929 and Jurkat cells (overall statement); type: cell-based; settings: H929 human multiple myeloma cells and Jurkat human leukemia cells, concentration dependent
Method: (§3) Targeted protein degradation in test samples were determined using the automated capillary-based nanoproteomic immunoassay Simple Western System (Protein Simple). Cultured cells were washed with cold PBS once and lysed in cold RIPA buffer supplemented with protease and phosphatase inhibitors. The solutions were then incubated at 4° C. for 30 minutes with gentle agitation to fully lyse cells. Each test sample was diluted at 0.4 mg/ml and mixed with 5× reducing buffer with fluorescent molecular weight (MW) standards. Afterwards the samples were heated to 95° C. for 5 minutes, and 5 μL samples were loaded into each capillary tube. Proteins were passed and separated through stacking and separation matrices for 30 minutes at 250 V. Proteins were then immobilized to capillary walls using optimal photoactivated capture chemistry. Following proteins immobilization, capillaries were flushed with a wash buffer and incubated with a blocking reagent for 6 min. Each target protein was probed with a specific primary antibody (diluted in blocking buffer and incubated for 38 min) and a horseradish peroxidase (HRP)-conjugated secondary antibody (ready to use solutions, incubated for 23 min). […] The resulting chemiluminescent signal was captured by a CCD camera, and signal intensities were analyzed using Compass Software (Protein Simple). […]

SEB induced PBMC = assay: Luminex-based multiplex cytokine assay, SEB induced PBMC; type: cell-based, human; settings: concentration-dependent (FIG. 7)
[1] = system: human hematopoietic cancer cells; assay: Cancer cell proliferation assay (CellTiter-Glo), blood cancer cells; type: cell-based; settings: 3 days, concentration-dependent (FIG. 2)
Method: (§4) The cell proliferation of cancer cells was assessed using the CellTiter-Glo Luminescent Cell Viability Assay (Promega), per the manufacturer's protocol.
(§5) Briefly, in 96-well flat-bottom white-walled multiwell cell culture plates the control wells containing 100 μL/well medium without cells were used to obtain a value for background luminescence. For treatment wells, cells were seeded at 5,000 in 50 μL/well of complete RPMI-1640 medium and then mixed with 50 μL/well of the vehicle control (0.1% DMSO) or test compounds at indicated concentrations. Following cell incubation for 3 days at 37° C. in a humidified 5% CO2 incubator, the plates were equilibrated at room temperature for approximately 30 minutes. 100 μL of CellTiter-Glo® Reagent were added into each well and then contents were mixed for 2 minutes on an orbital plate shaker to induce cell lysis. After the plates were incubated at room temperature for 10 minutes, luminescent signals of each well were recorded with a Tecan M200 Plate Reader (Tecan Trading AG, Switzerland).
(§6) The following human cancer cells originated from various tissues were used to test the antiproliferative activity of PPM compounds (Table 2). […] The EC50 values for each test compounds were calculated using GraphPad Prizm. […]

c-MYC = c-MYC (Homo sapiens, UniProt P01106); assay: Automatic Western blot (Simple Western), targeted protein degradation: c-MYC; type: cell-based; settings: for c-MYC in H929 cells (targeted protein degradation / expression): H929 human myeloma cells
Chain of c-MYC (P01106 whole entry): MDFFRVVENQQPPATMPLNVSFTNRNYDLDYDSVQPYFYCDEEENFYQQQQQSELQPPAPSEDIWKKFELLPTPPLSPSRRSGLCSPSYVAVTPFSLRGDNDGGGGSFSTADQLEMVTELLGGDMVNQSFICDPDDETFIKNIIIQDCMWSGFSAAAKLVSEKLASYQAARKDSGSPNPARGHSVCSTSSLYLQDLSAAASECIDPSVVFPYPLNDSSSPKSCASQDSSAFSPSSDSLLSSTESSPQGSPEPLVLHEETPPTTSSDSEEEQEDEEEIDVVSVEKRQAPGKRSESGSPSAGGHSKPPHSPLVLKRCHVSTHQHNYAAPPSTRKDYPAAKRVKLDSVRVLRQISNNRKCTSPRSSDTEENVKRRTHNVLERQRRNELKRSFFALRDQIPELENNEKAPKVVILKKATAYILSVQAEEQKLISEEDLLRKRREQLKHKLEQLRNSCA
Method: as §1, §2

CRBN = CRBN (Homo sapiens, UniProt Q96SW2); assay: Automatic Western blot (Simple Western), targeted protein degradation: CRBN; type: cell-based; settings: 0.001-10 μM, 24 hours
Chain of CRBN (Q96SW2 whole entry): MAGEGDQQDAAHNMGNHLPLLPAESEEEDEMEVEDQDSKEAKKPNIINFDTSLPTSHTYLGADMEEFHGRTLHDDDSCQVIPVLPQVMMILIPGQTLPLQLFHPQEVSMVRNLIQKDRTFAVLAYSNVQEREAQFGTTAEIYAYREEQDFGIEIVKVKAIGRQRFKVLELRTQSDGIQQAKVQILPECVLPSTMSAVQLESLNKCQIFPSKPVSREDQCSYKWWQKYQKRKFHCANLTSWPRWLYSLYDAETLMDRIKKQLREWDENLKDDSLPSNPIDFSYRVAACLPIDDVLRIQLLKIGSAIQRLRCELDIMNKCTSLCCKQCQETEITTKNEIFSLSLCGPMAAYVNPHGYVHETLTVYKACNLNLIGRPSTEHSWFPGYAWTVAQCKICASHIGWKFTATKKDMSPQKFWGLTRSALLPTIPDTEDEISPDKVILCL
Method: as §3

LPS induced PBMC = assay: Luminex-based multiplex cytokine assay, LPS induced PBMC; type: cell-based, human; settings: concentration-dependent (FIG. 6)
Ikaros = Ikaros (Homo sapiens, UniProt Q13422); assay: Automatic Western blot (Simple Western), targeted protein degradation: Ikaros; type: cell-based; settings: 0.001-10 μM, 24 hours
Chain of Ikaros (Q13422 whole entry): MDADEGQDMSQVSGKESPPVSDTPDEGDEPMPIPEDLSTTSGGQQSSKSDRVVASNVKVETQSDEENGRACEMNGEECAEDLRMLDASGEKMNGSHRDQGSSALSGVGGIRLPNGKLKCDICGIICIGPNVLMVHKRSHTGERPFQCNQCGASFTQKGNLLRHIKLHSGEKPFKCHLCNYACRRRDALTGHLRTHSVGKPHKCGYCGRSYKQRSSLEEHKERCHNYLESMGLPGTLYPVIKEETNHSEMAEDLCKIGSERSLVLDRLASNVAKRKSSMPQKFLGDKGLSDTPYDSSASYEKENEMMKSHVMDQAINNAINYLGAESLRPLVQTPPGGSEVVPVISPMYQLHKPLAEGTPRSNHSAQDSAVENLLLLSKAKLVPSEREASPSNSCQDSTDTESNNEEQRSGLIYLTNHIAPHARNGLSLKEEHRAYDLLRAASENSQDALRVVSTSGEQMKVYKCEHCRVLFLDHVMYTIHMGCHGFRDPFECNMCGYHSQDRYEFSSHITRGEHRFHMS
Method: as §1, §2

Aiolos = Aiolos (Homo sapiens, UniProt Q9UKT9); assay: Automatic Western blot (Simple Western), targeted protein degradation: Aiolos; type: cell-based; settings: 0.001-10 μM, 24 hours
Chain of Aiolos (Q9UKT9 whole entry): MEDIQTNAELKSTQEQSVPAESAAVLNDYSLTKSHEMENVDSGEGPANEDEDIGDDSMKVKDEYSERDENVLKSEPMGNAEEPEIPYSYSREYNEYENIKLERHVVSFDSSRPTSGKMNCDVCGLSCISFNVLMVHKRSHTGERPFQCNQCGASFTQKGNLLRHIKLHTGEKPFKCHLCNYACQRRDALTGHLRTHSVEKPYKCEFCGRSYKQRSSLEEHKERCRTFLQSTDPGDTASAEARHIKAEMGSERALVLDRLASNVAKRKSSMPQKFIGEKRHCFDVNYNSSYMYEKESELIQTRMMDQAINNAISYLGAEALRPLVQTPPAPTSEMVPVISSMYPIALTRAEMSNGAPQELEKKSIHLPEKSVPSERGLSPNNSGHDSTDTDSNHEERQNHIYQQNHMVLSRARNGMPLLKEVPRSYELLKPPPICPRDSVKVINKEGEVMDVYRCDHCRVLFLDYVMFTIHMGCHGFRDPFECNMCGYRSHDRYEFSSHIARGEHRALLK
Method: as §3

Poly (I:C) induced PBMC = assay: Luminex-based multiplex cytokine assay, Poly (I:C) induced PBMC; type: cell-based, human; settings: concentration-dependent (FIG. 5)
Eos = Eos (Homo sapiens, UniProt Q9H2S9); assay: Automatic Western blot (Simple Western), targeted protein degradation: Eos; type: cell-based; settings: 0.001-10 μM, 24 hours
Chain of Eos (Q9H2S9 whole entry): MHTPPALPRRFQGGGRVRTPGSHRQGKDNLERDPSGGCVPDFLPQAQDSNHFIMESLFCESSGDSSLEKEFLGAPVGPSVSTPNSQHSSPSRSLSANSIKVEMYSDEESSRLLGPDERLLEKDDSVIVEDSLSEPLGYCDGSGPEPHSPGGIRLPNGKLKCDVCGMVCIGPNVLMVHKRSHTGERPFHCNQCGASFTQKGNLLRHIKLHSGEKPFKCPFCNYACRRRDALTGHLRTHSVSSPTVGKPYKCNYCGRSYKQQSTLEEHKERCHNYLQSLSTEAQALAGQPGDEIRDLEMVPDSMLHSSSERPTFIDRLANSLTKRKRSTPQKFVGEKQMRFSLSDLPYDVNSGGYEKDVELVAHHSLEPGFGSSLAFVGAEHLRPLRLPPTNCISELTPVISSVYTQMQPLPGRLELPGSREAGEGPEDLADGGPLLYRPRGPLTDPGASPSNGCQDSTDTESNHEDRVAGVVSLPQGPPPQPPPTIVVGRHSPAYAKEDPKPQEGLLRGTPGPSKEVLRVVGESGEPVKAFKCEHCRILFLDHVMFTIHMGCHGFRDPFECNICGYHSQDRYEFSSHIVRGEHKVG
Method: as §3

GAPDH = assay: Automatic Western blot (Simple Western): GAPDH (sample loading control); type: cell-based, human; settings: 0.001-10 μM, 24 hours
Method: as §1, §2

[2] = system: human solid tissue cancer cells; assay: Cancer cell proliferation assay (CellTiter-Glo), solid tumors; type: cell-based; settings: 3 days, concentration-dependent (FIG. 1)
Method: as §4, §5, §6

HDAC = assay: In situ HDAC activity fluorometric assay in cancer cells; type: cell-based, human; settings: 24 h treatment, concentration dependent (FIG. 8)
Method: In Situ HDAC Activity Fluorometric Kit was purchased from Abcam and performed according to the manufacturer instructions. The cells (20,000) were seeded in a black walled 96-well plate and let to adhere overnight, then treated with DMSO or PPM compounds at indicated concentrations for 24 hrs. The media was then replaced with an HDAC substrate (acetylated peptide) dissolved in media and cells incubated for 3 hrs under cell culture conditions, followed by addition of the developer for 30 min to stop the reaction. The fluorescence was measured at Ex/Em=368/442 nm.

Chain of HDAC2 (Q92769 whole entry): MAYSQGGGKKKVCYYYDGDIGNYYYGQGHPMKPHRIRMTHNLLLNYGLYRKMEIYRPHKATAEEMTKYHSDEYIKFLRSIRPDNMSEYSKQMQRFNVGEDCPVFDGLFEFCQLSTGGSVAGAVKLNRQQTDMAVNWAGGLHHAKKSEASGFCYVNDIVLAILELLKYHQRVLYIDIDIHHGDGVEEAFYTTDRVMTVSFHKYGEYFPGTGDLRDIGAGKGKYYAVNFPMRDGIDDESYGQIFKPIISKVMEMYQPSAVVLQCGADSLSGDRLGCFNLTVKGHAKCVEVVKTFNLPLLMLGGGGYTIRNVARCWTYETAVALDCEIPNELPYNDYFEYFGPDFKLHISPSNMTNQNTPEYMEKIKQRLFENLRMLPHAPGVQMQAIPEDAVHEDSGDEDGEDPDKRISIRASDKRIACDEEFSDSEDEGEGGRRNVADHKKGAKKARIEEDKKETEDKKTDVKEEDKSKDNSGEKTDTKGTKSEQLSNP

Compound: O=C(CCCCc1ccc(C(=O)NCc2ccc3c(c2)CN(C2CCC(=O)NC2=O)C3=O)cc1)NO (stereo not drawn) [Compound 4, N-((2-(2,6-dioxopiperidin-3-yl)-1-oxoisoindolin-5-yl)methyl)-4-(5-(hydroxyamino)-5-oxopentyl)benzamide]
- HDAC2 in H929 cells (targeted protein degradation / expression) (HDAC2): reduced c-MYC and HDAC expression; also recorded: reduced HDAC2 expression
- HDAC2 in H929 cells (targeted protein degradation / expression) (HDAC2; listed as compound 4): degraded
- levels of HDAC2 (HDAC2; H929 or Jurkat cells): clearly reduced
- HDAC2 in Jurkat cells (targeted protein degradation) (HDAC2; Jurkat cells): degraded
- target protein degradation (target protein): caused target protein degradation
- cytokine production from SEB induced PBMC (SEB induced PBMC): enhanced cytokine production
- proliferation of human hematopoietic cancer cells [1]: selectively suppressed the proliferation
- Compound-induced c-MYC degradation after pretreatment with the proteosome inhibitor bortezomib (c-MYC; H929 cells, bortezomib pretreatment): prevented
- c-MYC in H929 cells (targeted protein degradation / expression) (c-MYC; 0.001-10 μM, 24 hours): reduced c-MYC and HDAC expression
- c-MYC in H929 cells (targeted protein degradation / expression) (c-MYC; 0.001-10 μM, 24 hours, listed as compound 4): degraded
- levels of c-MYC (c-MYC; H929 or Jurkat cells, 0.001-10 μM, 24 hours): clearly reduced
- c-MYC in Jurkat cells (targeted protein degradation) (c-MYC; Jurkat cells, 0.001-10 μM, 24 hours): degraded
- CRBN in H929 cells (targeted protein degradation) (CRBN; H929 cells): degraded
- CRBN in Jurkat cells (targeted protein degradation) (CRBN; Jurkat cells): degraded
- cytokine production from LPS induced PBMC (LPS induced PBMC): suppressed cytokine production
- Ikaros in H929 cells (targeted protein degradation) (Ikaros; H929 cells): degraded
- levels of Ikaros (Ikaros; H929 or Jurkat cells): clearly reduced
- Ikaros in Jurkat cells (targeted protein degradation / expression) (Ikaros): reduced Ikaros expression
- Ikaros in Jurkat cells (targeted protein degradation / expression) (Ikaros; listed as compound 4): degraded
- Aiolos in Jurkat cells (targeted protein degradation) (Aiolos): degraded
- cytokine production from Poly (I:C) induced PBMC (Poly (I:C) induced PBMC): suppressed cytokine production
- Eos in Jurkat cells (targeted protein degradation) (Eos): degraded
- GAPDH in H929 cells (expression, loading control) (GAPDH): no effect
- GAPDH in H929 cells (expression, loading control) (GAPDH; listed as compound 4): No effect
- GAPDH in Jurkat cells (expression, loading control) (GAPDH; Jurkat cells): No effect
- proliferation of human solid tissue cancer cells [2]: selectively suppressed the proliferation
- intracellular HDAC activity in human cancer cells (HDAC): inhibit intracellular HDAC activity; also recorded: suppressed intracellular HDAC activity
